{"source": "BindingDB's records for doi:10.1016/0006-8993(88)90805-0", "about": "(Veterans Administration Medical Center, 1988)", "molecular_target": "Sodium-dependent serotonin transporter (Rattus norvegicus, UniProt P31652)", "sequence (P31652 whole entry)": "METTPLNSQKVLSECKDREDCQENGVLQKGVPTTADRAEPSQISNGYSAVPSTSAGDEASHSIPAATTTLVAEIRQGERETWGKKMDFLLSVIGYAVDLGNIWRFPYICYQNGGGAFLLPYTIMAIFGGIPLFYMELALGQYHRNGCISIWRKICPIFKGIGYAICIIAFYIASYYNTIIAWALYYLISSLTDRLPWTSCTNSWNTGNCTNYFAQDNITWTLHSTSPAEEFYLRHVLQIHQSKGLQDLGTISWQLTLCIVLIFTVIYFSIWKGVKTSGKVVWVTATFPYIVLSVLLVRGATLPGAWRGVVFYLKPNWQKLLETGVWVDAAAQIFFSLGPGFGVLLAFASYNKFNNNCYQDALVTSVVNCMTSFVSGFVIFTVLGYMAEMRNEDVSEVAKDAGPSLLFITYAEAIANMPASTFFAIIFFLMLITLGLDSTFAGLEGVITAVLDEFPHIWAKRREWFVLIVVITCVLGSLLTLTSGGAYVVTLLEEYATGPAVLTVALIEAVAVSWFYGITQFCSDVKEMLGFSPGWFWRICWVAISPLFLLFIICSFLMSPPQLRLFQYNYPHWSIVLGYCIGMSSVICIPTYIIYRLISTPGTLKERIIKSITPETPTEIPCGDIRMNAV", "data": [{"compound": "CC[C@@H](CO)NC(=O)[C@@H]1C=C2c3cccc4c3c(cn4C)C[C@H]2N(C)C1", "values": [{"measurement": "Ki", "result": 3.7, "unit": "µM"}]}]}
